FAM = fluorescein amidite (fluorescent dye, FAM)

This experiment relates to HeLa cells. Kind of experiment: Evaluating cell penetrating ability by flow cytometry (FAM fluorescence) in HeLa cells. The class given is cell-based, human. The note with it: for MFI (mean fluorescent intensity): additive 10 μM, 0.5% DMSO, 20 hours incubation at 37° C., flow cytometry FL2 detector, average of triplicate; for shift of flow cytometry histogram on the X-axis (fluorescent intensity) in comparison with Example 3 (only FAM): FIG. 1. The protocol:
The cell penetrating ability of sample 1 and sample 2 was evaluated using HeLa cells (cell line established from human cervical cancer cells). In Table 2, Example 1 indicates a test of addition of sample 1 to a culture solution of HeLa cells, Example 2 indicates a test of addition of sample 2, Example 3 indicates a test of addition of FAM diluted with DMSO, and Example 4 indicates a test of addition of DMSO only.
HeLa cells were cultured in an ordinary culture medium, DMEM (Dulbecco's modified Eagle's medium, manufactured by Fuji Film Wako Pure Chemical Industries, Cat. No. 043-30085) containing 10% FBS (fetal bovine serum).
HeLa cells adhering to the culture plate were washed with PBS, 0.25% trypsin/EDTA solution was added, and the cells were incubated for 3 minutes at 37° C. After incubation, the same DMEM medium containing 10% FBS was added to deactivate the trypsin, and the cells were precipitated by 5 minutes of centrifugation at 150×g. The supernatant produced by centrifugation was removed, and the same DMEM containing 10% FBS was added to the precipitate (cell pellet) to prepare an approximately 1×10^5 cells/mL cell suspension. 2 mL of the cell suspension was added to the wells of a commercial 6-well plate (Iwaki microplate commercially available from AGC techno glass Co., Ltd) to seed the cells at a rate of approximately 2×10^5 cells/well. This was then cultured for 3 hours at 37° C. under conditions of 5% CO2, causing the cells to adhere to the bottom of the wells. Because the cell penetrating ability evaluation is performed in triplicate, cells were seeded in 3 wells for the test of Example 1, and the following operations were performed on each well.
Next, the above 2 mM sample solution 1 was diluted with the above DMEM containing 10% FBS to prepare a sample solution 1 in which the concentration of the sample 1 was 20 μM. 1 mL of the culture supernatant was removed from each well after the 3 hours of culture, and 1 mL of 20 μM sample solution 1 was added to the well so that the sample 1 concentration of the culture solution in the well was 10 μM and the DMSO concentration was 0.5%. This was then incubated for 20 hours at 37° C. under conditions of 5% CO2. After this 20-hour incubation, the culture supernatant was removed from the well, and the cells in the well were washed twice with 1 mL of PBS. 200 μL of 0.25% trypsin/EDTA solution was then added to the well, and the cells were incubated for 3 minutes at 37° C. After this incubation, 400 μL of the above DMEM containing 10% FBS was added to the well to deactivate the trypsin, after which the cell suspension in the well was transferred to a tube, and the cells were collected. 600 μL of PBS was then added to each well to wash the well. The PBS in the well was then transferred to the above tube to collect the cells remaining in the well in the tube. This tube was centrifuged for 5 minutes under conditions of 210×g at 4° C. After centrifugation the supernatant was removed, and the precipitate (cell pellet) was suspended (washed) in 1 mL of PBS and centrifuged under the same conditions. This operation was repeated twice to remove the supernatant and obtain cells (a cell pellet) that had been cultured in medium containing the sample 1.
The cells (cell pellet) obtained above were analyzed by flow cytometry to assess the cell penetrating ability of the sample 1. A flow cytometer (On-Chip Biotechnologies Co., Ltd.) was used for the analysis.
The cell pellet obtained above was suspended in 50 μL of PBS for purposes of this analysis. A further 50 μL of 2× sample buffer for flow cytometry was added to this suspension to prepare a cell suspension for analysis.
Gating was performed with the flow cytometer based on forward scatter (FSC) and side scatter (SSC), a gate was set for the cell population under analysis, and the cell population within this gate was measured for fluorescent intensity. Analysis was performed so that the cell population composed of at least 5,000 cells. […]

As for 5(6)-carboxyfluorescein [Example 3], the “MFI (mean fluorescent intensity)” value is reported as 6.
Regarding “FAM-KKRTLRKSNRKKR-CONH2 ({FAM}-KKRTLRKSNRKKR-NH2) [Example 1]”, the “MFI (mean fluorescent intensity)” value is listed as 62. Moreover, under “10 μM, 20 hours”, the “shift of flow cytometry histogram on the X-axis (fluorescent intensity) in comparison with Example 3 (only FAM)” value is given as “shifted to the right”. For the same substance, the “efficiency (cell penetrating ability), times higher than Example 2, from MFI values” (10 μM, 20 hours, comparison of MFI of Example 1 with Example 2) is given as 4 times.
With “FAM-KKRTLRKNDRKKR-CONH2 ({FAM}-KKRTLRKNDRKKR-NH2) [Example 2]”, the “MFI (mean fluorescent intensity)” value worked out at 15.5. Besides, the “shift of flow cytometry histogram on the X-axis (fluorescent intensity) in comparison with Example 3 (only FAM)” value (10 μM, 20 hours) is recorded as “shifted to the right”.

The record behind these values is patent US12617817B2, “Carrier peptide fragment and use thereof” (TOAGOSEI CO., LTD., priority 2020, dated 2026).
